From patent publication US20260365670A1, “EGFR INHIBITORS AND USES THEREOF” (DIZAL (JIANGSU) PHARMACEUTICAL CO., LTD., priority 2022, published 2026)
Like-named read-outs stand apart in the source and are kept apart here.

Experiments:
EGFR wild type = target: T1, EGFR wild type (Homo sapiens, UniProt P00533); assay: Inhibition of EGFR wild type biochemical enzymatic activity (HTRF); settings: EGFR wild type, 1 mM ATP, 1 h at room temperature
T1 construct: purchased Carna Bio
Procedure: Biological Example 1: Inhibition of EGFR WT and Mutant Biochemical Enzymatic Activity
The inhibition potency of compounds against these enzymes was assessed using Homogenous Time Resolved Fluorescence approach (HTRF, CisBio. Cat No. 62TKOPEJ).
Inhibitory effects of the compounds were determined by measuring the enzymatic activity of EGFR enzyme phosphorylates 1 μM TK Substrate-biotin in the presence of 1 mM adenosine-5′-triphosphate (ATP) and varying concentrations of the test compound. The enzyme reaction buffer contains 5 mM MgCl2, 1 mM MnC12, 0.01% CHAPS, 1 mM dithiothreitol (DTT), 0.5% dimethylsulfoxide (DMSO), and 1× supplemented enzymatic buffer. The WT and mutant EGFR enzymes (SignalChem) were added to plates containing inhibitors, followed by activation of the kinase reaction by addition of ATP and peptide substrates. After incubation for 1 h at room temperature, the reaction was stopped by the addition of the detection reagent mix containing EDTA. The fluorescence was measured at 615 nm and 665 nm, respectively with excitation wavelength at 320 nm. The calculated signal ratio of 665 nm/615 nm is proportional to the kinase activity. The concentration of compound producing 50% inhibition of the respective kinase (IC50) was calculated using four-parameter logistic fit with XL-FIT.

EGFR L858R = target: T2, EGFR L858R (Homo sapiens, UniProt P00533, L858R); assay: Inhibition of EGFR L858R biochemical enzymatic activity (HTRF); settings: 1 mM ATP, 1 h at room temperature
T2 construct: purchased Carna Bio
In short: (§1)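 For IC50 determination by four-parameter logistic fit, EDTA-quenched 1 h room-temperature reactions (1 mM ATP, 1 μM TK Substrate-biotin) were read by HTRF. The 665/615 nm emission ratio after 320 nm excitation served as the activity signal.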

EGFR L858R/T790M = target: T3, EGFR L858R/T790M (Homo sapiens, UniProt P00533, L858R/T790M); assay: Inhibition of EGFR L858R/T790M biochemical enzymatic activity (HTRF); settings: EGFR L858R/T790M, 1 mM ATP, 1 h at room temperature
T3 construct: purchased Carna Bio
In short: as §1

EGFR Exon19Del = target: T4, EGFR Exon19Del (Homo sapiens, UniProt P00533, DEL746-750); assay: Inhibition of EGFR Exon19Del biochemical enzymatic activity (HTRF); settings: 1 mM ATP, 1 h at room temperature
T4 construct: purchased Carna Bio
In short: as §1

EGFR Exon19Del/T790M = target: T5, EGFR Exon19Del/T790M (Homo sapiens, UniProt P00533, DEL746-750/T790M); assay: Inhibition of EGFR Exon19Del/T790M biochemical enzymatic activity (HTRF); settings: EGFR Exon19Del/T790M, 1 mM ATP, 1 h at room temperature
T5 construct: purchased Carna Bio
In short: as §1

EGFR[T790M/C797S/L858R] = target: T6, EGFR[T790M/C797S/L858R] (Homo sapiens, UniProt P00533, C797S/L858R/T790M); assay: Inhibition of EGFR[T790M/C797S/L858R] biochemical enzymatic activity (HTRF); settings: EGFR[T790M/C797S/L858R], 1 mM ATP, 1 h at room temperature
T6 construct: purchased Carna Bio
In short: as §1

[1] = target: T7, EGFR[T790M/C797S/d746-750] (Homo sapiens, UniProt P00533, C797S/DEL746-750/T790M); assay: Inhibition of EGFR[T790M/C797S/d746-750] biochemical enzymatic activity (HTRF); settings: 1 mM ATP, 1 h at room temperature
T7 construct: purchased Carna Bio
In short: as §1

EGFR (d746-750 C797S) = target: T8, EGFR (d746-750 C797S) (Homo sapiens, UniProt P00533, C797S/DEL746-750); assay: Inhibition of EGFR (d746-750 C797S) biochemical enzymatic activity (HTRF); settings: EGFR (d746-750 C797S), 1 mM ATP, 1 h at room temperature
T8 construct: purchased signalchem
In short: as §1

EGFR (C797S L858R) = target: T9, EGFR (C797S L858R) (Homo sapiens, UniProt P00533, C797S/L858R); assay: Inhibition of EGFR (C797S L858R) biochemical enzymatic activity (HTRF); settings: EGFR (C797S L858R), 1 mM ATP, 1 h at room temperature
T9 construct: purchased signalchem
In short: as §1

[2] = tested on: Ba/F3 cells expressing EGFR mutations; assay: Cell proliferation assay, Ba/F3 cells expressing EGFR mutations (CellTiter-Glo, 72 hours); assay type: cell-based
Procedure: Biological Example 2: Cell Proliferation Assays
Ba/F3 cells expressing EGFR mutations were seeded in 384-well plates at 5000 cells/well in RPMI1640 medium containing […]. PC-9 at 500 cells/well was seeded into 384-well plates in RPMI1640 medium with 10% FBS. After overnight incubation, the assay plates were dosed with compounds at a series of concentrations. Alongside dosing the assay plates, the day 0 plate was processed using CellTiter-Glo® Luminescent Cell Viability Assay (Promega) to measure the number of viable cells (G0). The assay plates were further incubated for 72 hours and the number of viable cells (G3) was measured. The percentage of proliferation was calculated as: […]=100×(G3 value of sample well−G0 value)/(G3 value of DMSO control−G0 value). The concentration of compound producing 50% proliferation inhibition (GI50) was further calculated in best-fit curves using XLFit software. N/A=not available.

PC-9 = assay: Cell proliferation assay, PC-9 cells (CellTiter-Glo, 72 hours); assay type: cell-based; settings: PC9 cells, read-out: GI50 PC9
In short: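 Ba/F3 cells (5000/well) and PC-9 cells (500/well, RPMI1640 with 10% FBS) were plated overnight and then dosed with a compound concentration series. Viable cells were read at day 0 (G0) and after treatment (G3). GI50 came from curve fits of G0-corrected proliferation relative to DMSO.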

[3] = EGFR Exon19Del, read-out: IC50 @Del19
[4] = read-out: IC50 @T790M- C797S - L858R
[5] = EGFR[T790M/C797S/d746-750], read-out: IC50 @T790M - C797S - Del19
[6] = Mus musculus, BaF3, 72 h, BaF3 cells, EGFR DEL19 - C797S, read-out: GI50 DEL19 - C797S/BaF3
[7] = Mus musculus, BaF3, 72 h, BaF3 cells, EGFR DEL19 - T790-C797S, read-out: GI50 DEL19 - T790-C797S/BaF3
[8] = Mus musculus, BaF3, 72 h, BaF3 cells, EGFR L858R - C797S, read-out: GI50 L858R - C797S/BaF3
[9] = Mus musculus, BaF3, 72 h, BaF3 cells, EGFR L858R - T790-C797S, read-out: GI50 L858R - T790-C797S/BaF3
[10] = Mus musculus, BaF3, 72 h, BaF3 cells, EGFR L858R - T790M, read-out: GI50 L858R - T790M/BaF3
[11] = Mus musculus, BaF3, 72 h, BaF3 cells, EGFR L858R, read-out: GI50 L858R/BaF3
[12] = Mus musculus, BaF3, 72 h, EGFR DEL19 - T790M, read-out: GI50 DEL19 - T790M
[13] = BaF3 cells, EGFR DEL19 - C797S, read-out: GI50 DEL19 - C797S/BaF3
[14] = BaF3 cells, EGFR DEL19 - T790-C797S, read-out: GI50 DEL19 - T790-C797S/BaF3
[15] = BaF3 cells, EGFR L858R - C797S, read-out: GI50 L858R - C797S/BaF3
[16] = BaF3 cells, EGFR L858R - T790-C797S, read-out: GI50 L858R - T790-C797S/BaF3
[17] = BaF3 cells, EGFR L858R - T790M, read-out: GI50 L858R - T790M/BaF3
[18] = BaF3 cells, EGFR L858R, read-out: GI50 L858R/BaF3
[19] = EGFR DEL19 - T790M, read-out: GI50 DEL19 - T790M

T7 sequence (P00533 with tags, fused parts or gaps DEL746-750/T790M/C797S limits assumed): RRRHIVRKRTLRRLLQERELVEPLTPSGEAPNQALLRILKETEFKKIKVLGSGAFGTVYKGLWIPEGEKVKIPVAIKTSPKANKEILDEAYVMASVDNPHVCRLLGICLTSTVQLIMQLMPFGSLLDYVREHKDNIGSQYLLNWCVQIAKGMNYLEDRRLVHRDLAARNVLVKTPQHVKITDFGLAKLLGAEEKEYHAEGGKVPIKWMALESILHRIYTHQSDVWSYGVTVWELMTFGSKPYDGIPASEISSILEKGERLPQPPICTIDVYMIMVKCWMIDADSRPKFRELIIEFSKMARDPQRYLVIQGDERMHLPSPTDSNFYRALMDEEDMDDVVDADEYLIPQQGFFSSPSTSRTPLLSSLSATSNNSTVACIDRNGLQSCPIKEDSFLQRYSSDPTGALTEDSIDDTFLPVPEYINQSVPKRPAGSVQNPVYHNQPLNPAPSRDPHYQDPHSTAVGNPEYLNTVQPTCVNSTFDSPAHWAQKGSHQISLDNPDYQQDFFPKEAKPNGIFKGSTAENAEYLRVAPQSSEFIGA
T2 sequence (P00533 25-1210 L858R): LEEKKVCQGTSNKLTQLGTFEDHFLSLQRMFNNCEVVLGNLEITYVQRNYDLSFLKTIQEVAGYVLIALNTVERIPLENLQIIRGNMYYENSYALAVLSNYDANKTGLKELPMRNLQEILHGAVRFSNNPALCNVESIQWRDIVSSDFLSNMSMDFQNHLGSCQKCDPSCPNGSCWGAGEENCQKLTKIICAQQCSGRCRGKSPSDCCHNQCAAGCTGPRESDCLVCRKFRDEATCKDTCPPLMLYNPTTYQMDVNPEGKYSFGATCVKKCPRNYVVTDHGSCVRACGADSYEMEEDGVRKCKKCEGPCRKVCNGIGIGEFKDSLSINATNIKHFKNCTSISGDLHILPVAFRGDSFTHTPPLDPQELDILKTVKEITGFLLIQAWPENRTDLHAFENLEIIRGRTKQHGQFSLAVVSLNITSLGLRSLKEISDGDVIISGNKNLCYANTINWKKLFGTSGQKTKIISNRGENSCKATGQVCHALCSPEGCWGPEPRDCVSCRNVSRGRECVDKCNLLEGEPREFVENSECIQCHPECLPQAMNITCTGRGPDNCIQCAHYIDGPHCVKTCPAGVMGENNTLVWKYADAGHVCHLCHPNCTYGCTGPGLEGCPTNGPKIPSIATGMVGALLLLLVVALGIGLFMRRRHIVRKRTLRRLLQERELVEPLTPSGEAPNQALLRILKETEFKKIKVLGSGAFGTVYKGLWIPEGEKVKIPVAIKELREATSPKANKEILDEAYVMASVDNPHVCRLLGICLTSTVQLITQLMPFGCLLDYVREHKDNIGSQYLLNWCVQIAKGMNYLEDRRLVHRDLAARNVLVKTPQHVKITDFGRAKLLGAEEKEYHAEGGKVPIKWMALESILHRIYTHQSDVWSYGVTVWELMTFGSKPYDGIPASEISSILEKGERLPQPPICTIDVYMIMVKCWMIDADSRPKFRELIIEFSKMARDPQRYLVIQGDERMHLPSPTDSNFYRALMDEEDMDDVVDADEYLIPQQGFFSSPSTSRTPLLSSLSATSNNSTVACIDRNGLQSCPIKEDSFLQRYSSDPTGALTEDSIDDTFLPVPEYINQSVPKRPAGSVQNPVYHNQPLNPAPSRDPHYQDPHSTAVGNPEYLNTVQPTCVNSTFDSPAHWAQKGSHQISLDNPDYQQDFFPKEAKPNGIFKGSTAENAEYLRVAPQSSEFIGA
T1 sequence (P00533 25-1210): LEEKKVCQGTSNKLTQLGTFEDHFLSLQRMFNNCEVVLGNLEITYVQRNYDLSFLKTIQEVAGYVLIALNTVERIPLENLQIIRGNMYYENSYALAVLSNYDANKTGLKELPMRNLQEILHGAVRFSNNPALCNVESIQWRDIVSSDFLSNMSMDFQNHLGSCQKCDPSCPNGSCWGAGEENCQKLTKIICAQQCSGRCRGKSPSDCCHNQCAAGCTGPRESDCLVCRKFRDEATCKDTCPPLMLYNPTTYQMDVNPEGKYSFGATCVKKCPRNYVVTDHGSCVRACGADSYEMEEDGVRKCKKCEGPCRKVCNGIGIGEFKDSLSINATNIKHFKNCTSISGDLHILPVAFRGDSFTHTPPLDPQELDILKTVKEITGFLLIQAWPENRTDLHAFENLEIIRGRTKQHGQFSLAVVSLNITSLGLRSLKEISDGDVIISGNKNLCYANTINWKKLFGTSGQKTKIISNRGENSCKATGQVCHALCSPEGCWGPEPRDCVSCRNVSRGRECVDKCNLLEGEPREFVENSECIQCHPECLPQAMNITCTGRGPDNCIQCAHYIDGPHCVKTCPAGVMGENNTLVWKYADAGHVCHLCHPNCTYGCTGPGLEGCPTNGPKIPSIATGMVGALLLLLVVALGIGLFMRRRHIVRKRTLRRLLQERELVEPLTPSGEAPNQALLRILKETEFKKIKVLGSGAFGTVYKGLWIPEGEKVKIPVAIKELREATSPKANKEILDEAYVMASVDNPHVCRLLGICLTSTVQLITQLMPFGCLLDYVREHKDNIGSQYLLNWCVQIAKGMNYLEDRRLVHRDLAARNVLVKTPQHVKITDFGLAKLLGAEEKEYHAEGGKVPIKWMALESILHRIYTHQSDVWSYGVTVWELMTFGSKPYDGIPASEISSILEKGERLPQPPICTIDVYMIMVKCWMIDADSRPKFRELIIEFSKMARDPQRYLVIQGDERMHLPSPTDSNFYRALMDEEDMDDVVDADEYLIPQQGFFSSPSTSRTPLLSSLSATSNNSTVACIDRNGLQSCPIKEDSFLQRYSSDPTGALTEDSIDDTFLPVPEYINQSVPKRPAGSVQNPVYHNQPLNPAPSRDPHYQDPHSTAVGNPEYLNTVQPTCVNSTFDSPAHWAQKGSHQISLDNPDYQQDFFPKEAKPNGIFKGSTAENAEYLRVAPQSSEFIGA
T8 sequence (P00533 with tags, fused parts or gaps DEL746-750/C797S limits assumed): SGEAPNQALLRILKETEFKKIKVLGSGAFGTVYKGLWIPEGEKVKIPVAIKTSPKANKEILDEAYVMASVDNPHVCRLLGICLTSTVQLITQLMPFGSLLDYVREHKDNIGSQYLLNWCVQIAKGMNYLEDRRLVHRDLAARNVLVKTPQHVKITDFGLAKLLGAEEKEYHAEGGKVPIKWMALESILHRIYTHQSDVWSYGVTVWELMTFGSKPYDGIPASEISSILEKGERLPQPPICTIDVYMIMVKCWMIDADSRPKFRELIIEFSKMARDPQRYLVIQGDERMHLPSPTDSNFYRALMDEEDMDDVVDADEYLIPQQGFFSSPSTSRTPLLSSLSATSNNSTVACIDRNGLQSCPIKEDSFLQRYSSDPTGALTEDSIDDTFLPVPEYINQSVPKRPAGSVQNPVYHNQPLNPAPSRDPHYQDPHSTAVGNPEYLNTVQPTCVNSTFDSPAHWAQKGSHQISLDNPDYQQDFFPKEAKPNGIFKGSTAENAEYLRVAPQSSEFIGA
T4 sequence (P00533 with tags, fused parts or gaps DEL746-750 limits assumed): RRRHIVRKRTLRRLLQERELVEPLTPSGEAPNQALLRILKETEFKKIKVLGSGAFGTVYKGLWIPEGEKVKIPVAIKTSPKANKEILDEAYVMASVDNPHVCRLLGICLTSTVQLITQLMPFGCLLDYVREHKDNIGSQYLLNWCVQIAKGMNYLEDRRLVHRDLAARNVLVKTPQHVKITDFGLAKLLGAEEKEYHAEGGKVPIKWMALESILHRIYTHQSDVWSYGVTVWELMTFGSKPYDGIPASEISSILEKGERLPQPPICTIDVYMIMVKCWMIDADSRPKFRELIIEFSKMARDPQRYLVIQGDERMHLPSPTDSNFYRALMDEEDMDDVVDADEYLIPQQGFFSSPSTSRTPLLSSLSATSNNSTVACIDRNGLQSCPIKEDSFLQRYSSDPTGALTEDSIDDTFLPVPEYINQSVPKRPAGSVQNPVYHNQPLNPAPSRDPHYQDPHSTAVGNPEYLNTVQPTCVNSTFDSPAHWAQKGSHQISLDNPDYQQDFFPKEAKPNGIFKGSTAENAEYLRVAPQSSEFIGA
T5 sequence (P00533 with tags, fused parts or gaps DEL746-750/T790M limits assumed): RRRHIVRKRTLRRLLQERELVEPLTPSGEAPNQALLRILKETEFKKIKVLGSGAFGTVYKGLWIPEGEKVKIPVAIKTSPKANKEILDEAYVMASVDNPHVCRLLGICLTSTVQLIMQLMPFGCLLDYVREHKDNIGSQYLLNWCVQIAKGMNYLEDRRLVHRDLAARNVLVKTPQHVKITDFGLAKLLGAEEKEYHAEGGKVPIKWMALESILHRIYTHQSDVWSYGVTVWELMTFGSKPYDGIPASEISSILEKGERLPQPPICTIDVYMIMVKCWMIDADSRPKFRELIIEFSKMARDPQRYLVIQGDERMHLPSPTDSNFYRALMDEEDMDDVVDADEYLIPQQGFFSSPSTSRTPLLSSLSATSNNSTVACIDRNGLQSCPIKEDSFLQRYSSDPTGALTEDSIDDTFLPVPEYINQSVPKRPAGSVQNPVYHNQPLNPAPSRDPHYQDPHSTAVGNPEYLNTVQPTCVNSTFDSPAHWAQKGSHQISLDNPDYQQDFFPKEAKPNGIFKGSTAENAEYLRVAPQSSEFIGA

IC50 (EGFR wild type; read-out: IC50 @WT) | IC50 (EGFR L858R; read-out: IC50 @L858R) | IC50 (EGFR L858R/T790M; read-out: IC50 @L858R-T790M) | IC50 (EGFR Exon19Del; [3]) | IC50 (EGFR Exon19Del/T790M; read-out: IC50 @Del19-T790M) | IC50 (EGFR[T790M/C797S/L858R]; [4]) | IC50 [1, 5] | IC50 (EGFR (d746-750 C797S); read-out: IC50 @Del19-C797S) | IC50 (EGFR (C797S L858R); read-out: IC50 @L858-C797S) | GI50 [2, 6] | GI50 [2, 7] | GI50 [2, 8] | GI50 [2, 13] | GI50 [2, 14] | GI50 [2, 15] | GI50 [2, 16] | GI50 [2, 17] | GI50 [2, 18] | GI50 [2, 19] | GI50 (PC-9) | Compound | further results
> 5000 nM | > 5000 nM | 2630 nM | 1210 nM | 104 nM | 1650 nM | 62 nM | 611 nM | > 5000 nM | 228 nM | 186 nM | 189 nM |  |  |  |  |  |  |  |  | Cc1cc2cc(n1)-c1cnn(C)c1OCCN1CCOCC(C1)n1c(nc3ccccc31)NC2=O (single isomer, unassigned) [Example B7A, 15,21-dimethyl-23,29-dioxa-2,9,11,16,20,21,26-heptaazahexacyclo[24.4.1.1^{13,17}.0^{2,10}.0^{3,8}.0^{18,22}]dotriaconta-3,5,7,9,13(32),14,16,18(22),19-nonaen-12-one] | GI50 [2, 9]: 295 nM; GI50 [2, 10]: 383 nM; GI50 [2, 11]: 934 nM; GI50 [2, 12]: 265 nM; GI50 (PC-9; Homo sapiens, PC-9, 72 h): 427 nM
> 5000 nM | > 5000 nM | > 5000 nM | 432 nM | 1070 nM | > 5000 nM | 245 nM | 454 nM | > 5000 nM | 83 nM | 107 nM | 386 nM |  |  |  |  |  |  |  |  | Cc1cc2cc(n1)-c1cnn(C)c1OCCN1CC3CCC(C3)(C1)n1c(nc3ccc(N4CCN(C)CC4)cc31)NC2=O (single isomer, unassigned) [Example B9A, 15,21-Dimethyl-5-(4-methylpiperazin-1-yl)-23-oxa-2,9,11,16,20,21,26-heptaazaheptacyclo[24.4.1.1^{1,28}.1^{13,17}.0^{2,10}.0^{3,8}.0^{18,22}]tritriaconta-3,5,7,9,13,15,17(33),18(22),19-nonaen-12-one] | GI50 [2, 9]: 46 nM; GI50 [2, 10]: 253 nM; GI50 [2, 11]: 471 nM; GI50 [2, 12]: 135 nM; GI50 (PC-9; Homo sapiens, PC-9, 72 h): 438 nM
 |  |  |  |  |  |  |  |  |  |  |  | 212 nM | 164 nM | 312 nM | 41 nM | 194 nM | 877 nM | 258 nM | 950 nM | Cc1cc2cc(n1)-c1cnn(C)c1OCCN1CC3CCC(C3)(C1)n1c(nc3ccc(N4CCC(N(C)C)CC4)cc31)NC2=O (single isomer, unassigned) [Example B40A, 5-[4-(dimethylamino)piperidin-1-yl]-15,21-dimethyl-23-oxa-2,9,11,16,20,21,26-heptaazaheptacyclo[24.4.1.1^{1,28}.1^{13,17}.0^{2,10}.0^{3,8}.0^{18,22}]tritriaconta-3,5,7,9,13,15,17(33),18(22),19-nonaen-12-one] | IC50 (EGFR wild type; IC50 @WT): > 5000 nM; IC50 (EGFR L858R; IC50 @L858R): > 5000 nM; IC50 (EGFR L858R/T790M; IC50 @L858R-T790M): > 5000 nM; IC50 (EGFR Exon19Del; IC50 @Del19, EGFR Exon19Del): > 5000 nM; IC50 (EGFR Exon19Del/T790M; IC50 @Del19-T790M): 430 nM; IC50 (EGFR[T790M/C797S/L858R]; IC50 @T790M- C797S - L858R): > 5000 nM; IC50 ([1]; IC50 @T790M - C797S - Del19, EGFR[T790M/C797S/d746-750]): 123 nM; IC50 (EGFR (d746-750 C797S); IC50 @Del19-C797S): 2480 nM; IC50 (EGFR (C797S L858R); IC50 @L858-C797S): > 5000 nM
> 5000 nM | > 5000 nM | > 5000 nM | > 5000 nM | 3670 nM | > 5000 nM | 1300 nM | > 5000 nM | > 5000 nM |  |  |  | 302 nM | 436 nM | 776 nM | 39 nM | 315 nM | 2790 nM | 348 nM | 2300 nM | Cc1cc2cc(n1)-c1cnn(C)c1OCCN1CC3CCC(C3)(C1)n1c(nc3ccc(N4CC[C@H](N(C)C)C4)cc31)NC2=O (single isomer, unassigned) [Example B41A] | 
> 5000 nM | > 5000 nM | > 5000 nM | > 5000 nM | 2480 nM | > 5000 nM | 1080 nM | > 5000 nM | > 5000 nM |  |  |  | 865 nM | 476 nM | 602 nM | 75 nM | 354 nM | 1770 nM | 468 nM | 1590 nM | Cc1cc2cc(n1)-c1cnn(C)c1OCCN1CC3CCC(C3)(C1)n1c(nc3ccc(N4CC[C@@H](N(C)C)C4)cc31)NC2=O (single isomer, unassigned) [Example B42A] | 
